Like-named read-outs stand apart in the source and are kept apart here.
Assays:
[1] = Biodistribution in mice bearing BxPC-3 xenograft tumors; assay type: in vivo; conditions: female, athymic nu/nu-nude, mouse, in vivo, total radioactivity; for tissue uptake at 48 h: 48 h p.i.
Procedure: All animal procedures conformed to the Animal Welfare Act and were approved by the University of California, Davis Institutional Animal Care and Use Committee. Female athymic nu/nu-nude mice (6–8 weeks old) were purchased from Charles River Laboratories (Wilmington, MA, USA) and provided food and water on an ad libitum basis. BxPC-3 xenografts were implanted according to previous methods. Briefly, BxPC-3 cells were evaluated by flow cytometry to confirm integrin αvβ6 expression levels, injected subcutaneously into the left flank [5 million in 100 μL of a 1:1 mixture of serum-free RPMI and GFR Matrigel (Corning, New York, NY, USA)], and allowed to grow for approximately 3 weeks until tumors reached a diameter of 0.5–1 cm.
For biodistribution studies the [^64Cu]1–4 (3.7–5.55 MBq) in PBS (100 μL, pH 7.2) was injected intravenously (i.v.) via catheter into the tail vein. Following a conscious uptake period, the mice were anesthetized (5% isoflurane), euthanized, and dissected ([^64Cu]1 and [^64Cu]2, n = 3/radiolabeled peptide/time point; 4, 24, and 48 h p.i.; the 72 h time point was obtained from the imaging animals after the 72 h PET/CT scans; compounds [^64Cu]3 and [^64Cu]4, n = 2/radiolabeled compound at 4 h p.i.). Tissues were rapidly collected, weighed, and radioactivity measured with a γ-counter. Decay-corrected radioactivity concentrations are expressed as the percentage of injected dose per gram of tissue (% ID/g). Data are reported as mean ± standard deviation (SD) (Figure S20, S21 and S25).

[2] = system: mouse serum protein; test: Mouse serum protein binding by ultrafiltration; assay type: in vitro ADME; conditions: 37 °C
Procedure: Serum protein binding of [^64Cu]1 and [^64Cu]2 was assessed following the previously reported method. Peptides [^64Cu]1 and [^64Cu]2 were evaluated by ultrafiltration using Centrifree Ultrafiltration devices (EMD) according to the manufacturer’s recommendations. Experiments were carried out in triplicate. The Centrifree Ultrafiltration devices were pretreated with PBS containing Tween 20 (5% v/v), followed by triplicate rinses with PBS. An aliquot of each peptide [^64Cu]1 or [^64Cu]2 in PBS (≤25 μL, 20–60 KBq) was thoroughly mixed with 0.5 mL of serum at 37 °C in a microfuge tube. The mixture was incubated at 37 °C for 5 min, and an aliquot (50 μL) was transferred to a tube for γ-counting. The remaining sample was transferred to a Centrifree Ultrafiltration device and centrifuged for 40 min at 1500 (RCF) at ambient temperature (20–24 °C). An aliquot (50 μL) of the filtrate was transferred to a tube for γ-counting. […] Following γ-counting, the protein-bound radioactivity was calculated by subtracting the counts measured in the filtrate aliquot (i.e., not protein-bound) from the counts in the corresponding serum aliquot. The data are expressed as mean ± standard deviation of fraction of radioactivity bound to protein after subtraction of non-specific binding determined in the blank.

**Q.** What does the source list for Cc1cc(-c2ccc(NC(=O)CCC(=O)NCCCC[C@H](NC(=O)CN3CCN(CC(=O)O)CCN(CC(=O)O)CCN(CC(=O)O)CC3)C(=O)NCCOCCOCCOCCOCCOCCOCCOCCOCCOCCOCCOCCOCCOCCOCCOCCOCCOCCOCCOCCOCCOCCOCCOCCOCCOCCOCCOCCOCCC(=O)N[C@@H](CC(N)=O)C(=O)N[C@@H](C)C(=O)N[C@H](C(=O)N3CCC[C@H]3C(=O)N[C@@H](CC(N)=O)C(=O)N[C@@H](CC(C)C)C(=O)N[C@@H](CCCNC(=N)N)C(=O)NCC(=O)N[C@@H](CC(=O)O)C(=O)N[C@@H](CC(C)C)C(=O)N[C@@H](CCC(N)=O)C(=O)N[C@H](C(=O)N[C@@H](CC(C)C)C(=O)N[C@@H](C)C(=O)N[C@@H](CCC(N)=O)C(=O)N[C@@H](CCCNC(=N)N)C(=O)N[C@H](C(=O)N[C@@H](C)C(=O)N[C@@H](CCCNC(=N)N)C(=O)N[C@H](C(=O)NCCOCCOCCOCCOCCOCCOCCOCCOCCOCCOCCOCCOCCOCCOCCOCCOCCOCCOCCOCCOCCOCCOCCOCCOCCOCCOCCOCCOCCC(N)=O)[C@@H](C)O)C(C)C)C(C)C)C(C)C)c(C)c2)ccc1N=Nc1ccc2c(S(=O)(=O)O)cc(S(=O)(=O)O)c(N)c2c1O [[^64Cu]1, [^64Cu]Cu DOTA-EB-αvβ6-BP, metal not drawn]?
**A.** tissue uptake at 48 h ([1]; iv, i.v., read-out: Blood uptake): 0.33 ± 0.1 %ID/g; tissue uptake at 48 h ([1]; iv, i.v., read-out: Bone uptake): 0.3 ± 0.08 %ID/g; tissue uptake at 48 h ([1]; iv, i.v., read-out: Brain uptake): 0.12 ± 0.02 %ID/g; tissue uptake at 48 h ([1]; iv, i.v., read-out: BxPC-3 Tumor uptake): 4 ± 1.51 %ID/g; tissue uptake at 48 h ([1]; iv, i.v., read-out: Fecal Matter radioactivity): 2.34 ± 0.89 %ID/g; tissue uptake at 48 h ([1]; iv, i.v., read-out: Gall Bladder uptake): 1.75 ± 0.61 %ID/g; tissue uptake at 48 h ([1]; iv, i.v., read-out: Heart uptake): 1.02 ± 0.17 %ID/g; tissue uptake at 48 h ([1]; iv, i.v., read-out: Kidneys uptake): 26.2 ± 5.89 %ID/g; tissue uptake at 48 h ([1]; iv, i.v., read-out: Lg. Intestines uptake): 2.65 ± 0.05 %ID/g; tissue uptake at 48 h ([1]; iv, i.v., read-out: Liver uptake): 2.59 ± 0.51 %ID/g; tissue uptake at 48 h ([1]; iv, i.v., read-out: Lung uptake): 2.33 ± 0.32 %ID/g; tissue uptake at 48 h ([1]; iv, i.v., read-out: Muscle uptake): 0.49 ± 0.07 %ID/g; tissue uptake at 48 h ([1]; iv, i.v., read-out: Pancreas uptake): 0.41 ± 0.2 %ID/g; tissue uptake at 48 h ([1]; iv, i.v., read-out: Skin uptake): 1.12 ± 0.18 %ID/g; tissue uptake at 48 h ([1]; iv, i.v., read-out: Sm. Intestines uptake): 1.85 ± 0.07 %ID/g; tissue uptake at 48 h ([1]; iv, i.v., read-out: Spleen uptake): 0.5 ± 0.18 %ID/g; tissue uptake at 48 h ([1]; iv, i.v., read-out: Stomach uptake): 3.02 ± 0.52 %ID/g; tissue uptake at 48 h ([1]; iv, i.v., read-out: Urine radioactivity): 3.92 ± 1.05 %ID/g; tissue uptake at 72 h ([1]; iv, 72 h p.i., i.v., read-out: Blood uptake): 0.35 ± 0.08 %ID/g; tissue uptake at 72 h ([1]; iv, 72 h p.i., i.v., read-out: Bone uptake): 0.25 ± 0.13 %ID/g; tissue uptake at 72 h ([1]; iv, 72 h p.i., i.v., read-out: Brain uptake): 0.16 ± 0.04 %ID/g; tissue uptake at 72 h ([1]; iv, 72 h p.i., i.v., read-out: BxPC-3 Tumor uptake): 3.32 ± 0.46 %ID/g; tissue uptake at 72 h ([1]; iv, 72 h p.i., i.v., read-out: Fecal Matter radioactivity): 1.81 ± 0.74 %ID/g; tissue uptake at 72 h ([1]; iv, 72 h p.i., i.v., read-out: Gall Bladder uptake): 1.75 ± 0.65 %ID/g; tissue uptake at 72 h ([1]; iv, 72 h p.i., i.v., read-out: Heart uptake): 1.15 ± 0.2 %ID/g; tissue uptake at 72 h ([1]; iv, 72 h p.i., i.v., read-out: Kidneys uptake): 20 ± 6.91 %ID/g; tissue uptake at 72 h ([1]; iv, 72 h p.i., i.v., read-out: Lg. Intestines uptake): 1.95 ± 0.29 %ID/g; tissue uptake at 72 h ([1]; iv, 72 h p.i., i.v., read-out: Liver uptake): 2.36 ± 0.51 %ID/g; tissue uptake at 72 h ([1]; iv, 72 h p.i., i.v., read-out: Lung uptake): 1.88 ± 0.11 %ID/g; tissue uptake at 72 h ([1]; iv, 72 h p.i., i.v., read-out: Muscle uptake): 0.44 ± 0.12 %ID/g; tissue uptake at 72 h ([1]; iv, 72 h p.i., i.v., read-out: Pancreas uptake): 0.59 ± 0.12 %ID/g; tissue uptake at 72 h ([1]; iv, 72 h p.i., i.v., read-out: Skin uptake): 0.88 ± 0.12 %ID/g; tissue uptake at 72 h ([1]; iv, 72 h p.i., i.v., read-out: Sm. Intestines uptake): 1.38 ± 0.18 %ID/g; tissue uptake at 72 h ([1]; iv, 72 h p.i., i.v., read-out: Spleen uptake): 0.58 ± 0.16 %ID/g; tissue uptake at 72 h ([1]; iv, 72 h p.i., i.v., read-out: Stomach uptake): 2.02 ± 0.16 %ID/g; tissue uptake at 72 h ([1]; iv, 72 h p.i., i.v., read-out: Urine radioactivity): 3.17 ± 1.58 %ID/g; tissue uptake at 72 h ([1]; 72 h, read-out: GI uptake): < 3.2 %ID/g; tissue uptake ([1]; throughout 4–72 h, read-out: Liver uptake throughout): < 3 %ID/g; Binding to mouse serum protein [2]: 41.9 ± 1.1%
